Ends that are not written are not given here.
Tests used:
[1] = Stability of PACAP 66 suspension at 20 mg/mL in 2-propanol at 40° C.; assay type: physicochemical; settings: suspension 20 mg/mL in 2-propanol
Text: (§1) To test whether a metal salt would stabilize PACAP 66 at a high peptide concentration in an organic solvent, a high concentration of a metal salt would be required, assuming a fixed ratio of metal and peptide is needed for stabilization. A metal salt, however, has limited solubility in an organic solvent Therefore, a similar preparation method was adopted for sample preparation of peptide-metal mixtures at high concentrations, as described under Acidification and Lyophilization of PACAP 66, supra. Briefly, a metal salt and the peptide were first dissolved at a fixed molar ratio in an aqueous solution. The solution was then aliquoted in 3-mL glass vials at a fixed volume and lyophilized. Stability samples were prepared by adding a fixed amount of an organic solvent in the vial. The sample vials were then capped, sealed, and incubated at 40° C. Stability samples were first diluted to a reasonable concentration before analysis by RP-HPLC or CE. Similarly, a peptide suspension was prepared by mixing a proper amount of an organic solvent in a sample vial containing the lyophilized mixture and incubated at 40° C. Stability of solid PACAP 66 was evaluated directly by incubating the sample vial containing the lyophilized mixture at 40° C.

[2] = Stability of PACAP 66 solution at 300 mg/mL in DMSO at 40° C.; assay type: physicochemical; settings: 23 weeks
Text: as §1
PACAP 66 in the sample was acidified in the absence and presence of ZnCl2. Approximately 70% of the peptide was degraded in the control sample after storage for 23 weeks, while approximately 20% was degraded in the acidified samples in the presence or absence of ZnCl2.

[3] = Stability of PACAP 66 in DMSO at 40° C. in the presence of different metal salts (RP-HPLC recovery, CE purity); assay type: physicochemical; settings: 2 mg/mL; for PACAP 66 degraded: 4 weeks, RP-HPLC
Experimental: Different metal salts, including ZnCl2, MgCl2, and CaCl2 were separately dissolved at 1 mM in DMSO, a non-aqueous organic solvent. PACAP 66 was then dissolved in these solutions at 2 mg/mL. The bulk solution was aliquoted into 2-mL screw-capped (with an o-ring) sterile polypropylene vials. These stability samples were incubated at 40° C. and analyzed at predetermined intervals.
More than 70% of PACAP 66 was degraded in DMSO in 4 weeks at 40° C. by RP-HPLC, but only approximately 10% of PACAP 66 was degraded in the presence of 1 mM ZnCl2 under the same storage conditions. […] The CE results were similar to the findings from the RP-HPLC analysis.

[4] = Stability of peptide in an aqueous solution; assay type: physicochemical
[5] = Solubility of peptide in organic solvents; assay type: physicochemical; settings: some organic solvents
[6] = Stability of acidified, lyophilized PACAP 66 in DMSO at 40° C.; assay type: physicochemical; settings: for PACAP 66 degraded: 2 weeks
Experimental: Several acid solutions were prepared at 0.1%, including HCl, trifluoro acetic acid (TFA), and H3PO4 and cooled to 2-8° C. The cold acid solutions were then mixed with PACAP 66 at a PACAP 66:acid molar ratio of 1:10. After mixing, the cold PACAP 66 solutions were immediately placed inside a precooled freeze-drier and were lyophilized. The lyophilized material was further equilibrated in a desiccator containing P2O5 for at least one day to absorb additional moisture from the lyophilized peptide. The acidified and dried material was then dissolved in DMSO at 2 mg/mL and stability was conducted as described in the upper section.
The recovery of HCl-acidified PACAP 66 at the end of a 2-week period was 97% by RP-HPLC. However, the recovery could be slightly overestimated, as the corresponding purity of PACAP 66 in the sample was only 89% by RP-HPLC.
We understand that peptides can be hydrolyzed readily under acidic conditions in an aqueous solution. […] In the acidification of PACAP 66, the pH of acidified PACAP 66 solution was measured to be 2.2 after addition of TFA. At this pH, PACAP 66 should be rapidly hydrolyzed.

[7] = Stability of PACAP 66 in a lyophilized state at 40° C.; assay type: physicochemical
Text: as §1

[8] = Stability of PACAP 66 solution at 20 mg/mL in 1-methyl-2-pyrrolinidone at 40° C.; assay type: physicochemical; settings: acidified samples
Text: as §1
PACAP 66 in the sample was acidified in the absence and presence of ZnCl2.

[9] = pH 4; cited from earlier work

Row | peptide degraded ([2]; acidified (HCl), absence of ZnCl2) | peptide degraded ([2]; acidified (HCl), presence of ZnCl2) | peptide degraded ([2]; control sample) | PACAP 66 degraded ([3]; 1 mM ZnCl2) | PACAP 66 degraded ([3]; control without metal salt) | effect of different metals on stability ([4]; aqueous solution, 40° C., zinc, magnesium or calcium) | effect of zinc oxide on stability ([4]; aqueous solution, zinc oxide at 10 mM (FIG. 1)) | stability in an aqueous environment ([4]; aqueous, 40° C. (FIG. 1)) | solubility in organic solvents [5] | PACAP 66 degraded ([6]; acidified (HCl, TFA or H3PO4) and lyophilized PACAP 66, DMSO 2 mg/mL) | relative stabilization effect by acids ([6]; acidified and lyophilized PACAP 66 in DMSO) | PACAP 66 degraded ([6]; unprocessed PACAP 66 (control), DMSO 2 mg/mL) | effect of acidification on stability during storage [7] | Substance | effect of addition of ZnCl2 on storage stability [1] | stabilizing effect compared with the control ([3]; 1 mM CaCl2) | stabilizing effect compared with the control ([3]; 1 mM MgCl2) | effect of addition of ZnCl2 on stability ([7]; acidified) | effect of addition of ZnCl2 on stability [8] | stability in an aqueous solution [9]
1 | approximately 20% | approximately 20% | Approximately 70% | approximately 10% | More than 70% | does not improve its stability | did not stabilize | not stable | dissolved easily | less than 10% | HCl >TFA >H3PO4 | More than 50% | significantly stabilized the peptide | HSDAVFTDNYTRLRKQVAAKKYLQSIKNKRY [PACAP 66] | significantly improved the storage stability | did not have any significant stabilizing effect | did not have any significant stabilizing effect | seems to stabilize the peptide to a higher degree | seems to stabilize PACAP 66 to a higher degree | –
2 | – | – | – | – | – | – | – | – | – | – | – | – | – | Secretin: a PACAP-like peptide | – | – | – | – | – | can be degraded easily
